From the supplement of paper PMC13380429

How the values were obtained:
Conditions in all cases: 72 h
Caco-2 [1] = test: relative viability EC50 (midpoint between 100% and the lowest measured viability); higher = less toxic
U2OS [2] = test: as above
Calu-3 [3] = test: as above
Vero E6 [4] = test: as above
HepG2 [5] = test: as above
Caco-2 [6] = test: drug sensitivity score (DSS) for viability; higher = more toxic; extreme values may be limits of the assay
U2OS [7] = test: as above
Calu-3 [8] = test: as above
Vero E6 [9] = test: as above
HepG2 [10] = test: as above
Caco-2 [11] = test: cell viability relative to DMSO; higher = less toxic
U2OS [12] = test: as above
Calu-3 [13] = test: as above
Vero E6 [14] = test: as above
HepG2 [15] = test: as above

| SMILES | relative viability EC50 (Caco-2 [1]) | relative viability EC50 (U2OS [2]) | relative viability EC50 (Calu-3 [3]) | relative viability EC50 (Vero E6 [4]) | relative viability EC50 (HepG2 [5]) | drug sensitivity score (Caco-2 [6]) | drug sensitivity score (U2OS [7]) | drug sensitivity score (Calu-3 [8]) | drug sensitivity score (Vero E6 [9]) | drug sensitivity score (HepG2 [10]) | cell viability (Caco-2 [11]; 1 nM) | cell viability (Caco-2 [11]; 10 nM) | cell viability (Caco-2 [11]; 100 nM) | cell viability (Caco-2 [11]; 1000 nM) | cell viability (Caco-2 [11]; 10000 nM) | cell viability (U2OS [12]; 1 nM) | cell viability (U2OS [12]; 10 nM) | cell viability (U2OS [12]; 100 nM) | cell viability (U2OS [12]; 1000 nM) | cell viability (U2OS [12]; 10000 nM) | cell viability (Calu-3 [13]; 1 nM) | cell viability (Calu-3 [13]; 10 nM) | cell viability (Calu-3 [13]; 100 nM) | cell viability (Calu-3 [13]; 1000 nM) | cell viability (Calu-3 [13]; 10000 nM) | cell viability (Vero E6 [14]; 1 nM) | cell viability (Vero E6 [14]; 10 nM) | cell viability (Vero E6 [14]; 100 nM) | cell viability (Vero E6 [14]; 1000 nM) | cell viability (Vero E6 [14]; 10000 nM) | cell viability (HepG2 [15]; 1 nM) | cell viability (HepG2 [15]; 10 nM) | cell viability (HepG2 [15]; 100 nM) | cell viability (HepG2 [15]; 1000 nM) | cell viability (HepG2 [15]; 10000 nM) |
| --- | --- | --- | --- | --- | --- | --- | --- | --- | --- | --- | --- | --- | --- | --- | --- | --- | --- | --- | --- | --- | --- | --- | --- | --- | --- | --- | --- | --- | --- | --- | --- | --- | --- | --- | --- |
| CNCCC(Oc1ccccc1OC)c1ccccc1 (stereo not drawn) [nisoxetine] | > 10 µM | > 10 µM | > 10 µM | > 10 µM | > 10 µM | 0 | 0 | 0 | 0 | 0 | 105% | 96.2% | 109% | 98.6% | 107% | 105% | 98.3% | 102% | 99% | 102% | 94% | 107% | 98.2% | 109% | 102% | 107% | 104% | 101% | 103% | 95.6% | 113% | 105% | 104% | 108% | 99% |
| O=[N+]([O-])c1cc(O)c(O)c([N+](=O)[O-])c1 [OR-486] | > 10 µM | > 10 µM | > 10 µM | > 10 µM | > 10 µM | 0 | 0 | 0 | 0 | 0 | 93.2% | 103% | 103% | 97% | 94.3% | 98.2% | 102% | 96.5% | 103% | 98% | 102% | 100% | 95.2% | 94% | 99.5% | 97.6% | 99% | 102% | 100% | 97% | 101% | 98.3% | 98.3% | 93.6% | 96.7% |
| COc1cc2nc(N3CCN(C(=O)COc4c(OC)cccc4C(C)C)CC3)nc(N)c2cc1OC [Rec-15/2615] | > 10 µM | > 10 µM | > 10 µM | > 10 µM | > 10 µM | 1 | 0.1 | 0.4 | 0 | 1 | 84.3% | 102% | 101% | 90.1% | 84.4% | 96.4% | 97.9% | 94.3% | 95.9% | 84.2% | 98.7% | 102% | 97.3% | 95.4% | 84.8% | 98.8% | 99.3% | 99.4% | 99.6% | 95.5% | 91.2% | 92.1% | 103% | 92% | 83.7% |
| CCC(=O)[C@@]1(C)[C@H](C)C[C@H]2[C@@H]3CCC4=CC(=O)C=C[C@]4(C)[C@H]3[C@@H](O)C[C@@]21C [rimexolone] | > 10 µM | > 10 µM | > 10 µM | > 10 µM | > 10 µM | 0 | 0 | 0 | 0 | 0 | 85.5% | 90.5% | 101% | 88.8% | 107% | 99.8% | 98.9% | 100% | 95.5% | 97% | 98.4% | 99% | 89.4% | 102% | 96.4% | 93.8% | 95.2% | 90% | 94.7% | 100% | 86.3% | 102% | 95.4% | 112% | 92.8% |
| Cc1ccccc1C(=O)c1ccc(Nc2ccc(Br)cc2N)cc1Cl [EO-1428] |  | > 10 µM | > 10 µM | > 10 µM | > 10 µM | 2.4 | 0.7 | 0 | 0.7 | 0 | 103% | 95.5% | 92.3% | 85.7% | 74% | 98.5% | 101% | 96.1% | 96.2% | 82.8% | 93% | 96.6% | 83.4% | 90.8% | 89.5% | 96.7% | 101% | 93.4% | 80.7% | 92.2% | 97% | 96% | 98.3% | 85.6% | 108% |
| COc1cc2nc(N3CCCN(C)CC3)nc(NC3CCN(Cc4ccccc4)CC3)c2cc1OC |  | 2.69 µM | 2.62 µM | 2.77 µM | 1.37 µM | 1.9 | 3.5 | 5.7 | 4.6 | 8.8 | 96.1% | 104% | 88.9% | 108% | 54.9% | 98% | 100% | 95% | 96.6% | 43.8% | 84.2% | 100% | 89.7% | 94.1% | 12.6% | 106% | 97.4% | 99.7% | 96.2% | 26.1% | 98.8% | 85.4% | 91.4% | 67.5% | 10.3% |
| COc1ccc2cc([C@H](C)C(=O)O)ccc2c1 [naproxen] | > 10 µM | > 10 µM | > 10 µM | > 10 µM | > 10 µM | 0 | 0 | 0 | 0 | 0 | 95.1% | 101% | 102% | 94.9% | 95.3% | 101% | 102% | 98.4% | 96.8% | 102% |  |  |  |  |  | 109% | 97.8% | 98.2% | 101% | 100% | 106% | 103% | 104% | 100% | 99.4% |
| COc1cc2c(cc1NS(=O)(=O)c1ccc(Br)cc1C)n(C)c(=O)n2C [OF-1] | > 10 µM | > 10 µM |  | > 10 µM | 1.69 µM | 2.1 | 0.3 |  | 0.1 | 5.1 | 94% | 95.3% | 102% | 86.2% | 78.2% | 99.1% | 94.6% | 103% | 93% | 88.3% |  |  |  |  |  | 105% | 102% | 96.4% | 99.7% | 88% | 96.5% | 101% | 97.1% | 87.8% | 42.3% |
| CCCCCCCCc1ccc(-c2ccc(C(=O)O)cc2)cc1 | > 10 µM | > 10 µM |  | > 10 µM | > 10 µM | 0 | 0 |  | 0 | 0 | 100% | 107% | 81.5% | 98.7% | 97.3% | 99% | 106% | 96.8% | 93% | 95% |  |  |  |  |  | 101% | 99.7% | 97.7% | 97.7% | 106% | 101% | 99.8% | 97.2% | 101% | 97.3% |
| O=C(C[C@H]1CC(c2ccc(F)cc2F)=NO1)N1CCOCC1 (racemic) [CPSI-1306-(+/-)] | > 10 µM | > 10 µM |  | > 10 µM | > 10 µM | 0 | 0 |  | 0 | 0 | 93.7% | 105% | 107% | 90.9% | 104% | 95.7% | 99.3% | 99.1% | 102% | 104% |  |  |  |  |  | 95.6% | 97.4% | 93.6% | 95% | 106% | 101% | 107% | 96.4% | 95.6% | 104% |
| CNc1cc2[nH]c(=O)n(-c3ccc(NC(=O)NS(=O)(=O)c4ccc(Cl)s4)cc3)c(=O)c2cc1F [elinogrel] | > 10 µM | > 10 µM |  | > 10 µM | > 10 µM | 0 | 0 |  | 0 | 0 | 95.7% | 103% | 97.2% | 98.3% | 101% | 95.6% | 101% | 100% | 103% | 104% |  |  |  |  |  | 94.6% | 95.2% | 95.2% | 95.3% | 100% | 100% | 91.4% | 89.7% | 94.1% | 99.8% |
| O=P1(N(CCCl)CCCl)NCCCO1 (stereo not drawn) [cyclophosphamide] | > 10 µM | > 10 µM |  | > 10 µM | > 10 µM | 0 | 0 |  | 0 | 0 | 100% | 100% | 95.6% | 86.7% | 98.6% | 102% | 102% | 101% | 95.5% | 99.2% |  |  |  |  |  | 97.6% | 99.8% | 99.4% | 98.2% | 94% | 91.9% | 98.9% | 91.5% | 99.8% | 105% |
